# Data published in patent US9271946B2, “Use of a RAR antagonist or inverse agonist for the treatment of chemotherapy and/or radiation therapy side effects” (IO Therapeutics, Inc., priority 2006, dated 2016).
# What was measured:
# [1] = tested on: S. aureus 29213 infection in leukopenic female BDF1 mice; assay: protective effect against S. aureus infection in leukopenic mice (Example 3); assay type: in vivo, mouse
# Method: S. aureus 29213 obtained from American Type Culture Collection (ATCC) (Rockville, Md.) was used to induce infections in leukopenic female BDF1 mice (20-22 g). S. aureus were cultured at 37° C. in Tryptic Soy broth until the mid-logarithmic phase of growth (optical density at 600 nm=0.3), harvested, and washed with PBS. The number of bacteria was enumerated by serial dilution with PBS, plating onto blood agar, and counting colony-forming units (CFU) 48 hours after incubation at 37° C. The suspension was adjusted to […].
# Mice were rendered leukopenic by i.p. injection of CPM at 200 mg/kg. A lethal dose (LD) of S. aureus was determined by intravenous injections of 1×10^3 to 1×10^8 CFU to groups of 10 mice 4 days after CPM treatment. 10-day survivors were enumerated, and the LD95 of S. aureus was calculated by Probit analysis. Treatment with VTP 194310 (at 1 mg/kg) was started one day before CPM and continued for 3 more days. Four days after CPM, the animals were infected intravenously with 4.1 and 2.5×10^6 CFU of S. aureus in 200 μl of PBS. Surviving animals were recorded daily for 14 days after the challenge. […] All experiments were performed in compliance with relevant laws and institutional guidelines, and were approved by the Animal Care and Use Committee.
# RARα = biological target: T1, RARα (Homo sapiens, UniProt P10276); assay: binding to RARα
# T1 sequence (P10276 1-462): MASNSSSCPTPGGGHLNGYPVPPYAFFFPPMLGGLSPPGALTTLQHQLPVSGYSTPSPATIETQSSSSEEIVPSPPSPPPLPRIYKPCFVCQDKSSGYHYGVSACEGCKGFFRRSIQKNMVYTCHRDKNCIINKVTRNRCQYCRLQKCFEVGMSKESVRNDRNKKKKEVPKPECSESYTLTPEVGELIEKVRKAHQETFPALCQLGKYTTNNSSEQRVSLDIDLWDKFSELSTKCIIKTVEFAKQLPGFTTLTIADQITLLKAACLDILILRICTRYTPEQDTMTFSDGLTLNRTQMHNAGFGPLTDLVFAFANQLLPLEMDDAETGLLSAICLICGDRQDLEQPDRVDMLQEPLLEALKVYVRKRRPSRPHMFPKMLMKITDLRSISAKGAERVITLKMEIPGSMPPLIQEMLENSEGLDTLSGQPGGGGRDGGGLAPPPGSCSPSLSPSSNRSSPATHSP
# RARβ = biological target: T2, RARβ (Homo sapiens, UniProt P10826); assay: binding to RARβ
# T2 sequence (P10826 1-455): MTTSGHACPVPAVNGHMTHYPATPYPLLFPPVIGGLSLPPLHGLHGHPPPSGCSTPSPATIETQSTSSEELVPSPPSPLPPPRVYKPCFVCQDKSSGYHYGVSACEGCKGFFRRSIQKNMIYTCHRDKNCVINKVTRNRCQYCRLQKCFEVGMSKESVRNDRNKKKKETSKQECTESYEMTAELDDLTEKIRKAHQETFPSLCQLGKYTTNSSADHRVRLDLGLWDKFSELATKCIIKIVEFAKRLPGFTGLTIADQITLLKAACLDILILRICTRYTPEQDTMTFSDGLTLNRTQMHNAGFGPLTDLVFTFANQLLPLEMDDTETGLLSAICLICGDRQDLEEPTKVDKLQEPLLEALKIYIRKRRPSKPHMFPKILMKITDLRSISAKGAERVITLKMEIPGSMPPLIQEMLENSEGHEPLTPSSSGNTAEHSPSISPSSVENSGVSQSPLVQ
# [2] = tested on: CPM-induced neutropenic male BDF1 mice; assay: mono-therapy and combination therapy on neutrophil recovery in CPM-induced neutropenic mice (Example 4); assay type: in vivo, mouse
# Method: VTP 194310 DMSO stock solution was made by weighing out VTP 194310 and dissolved in DMSO (25 mg/1.33 ml DMSO). This stock solution was then mixed with Vehicle (39.2 ml Corn Oil+0.8 ml DMSO).
# The 3.0 mg/kg VTP194310 solution was made by mixing 39.2 ml Corn Oil+0.8 ml VTP 194310 DMSO Stock.
# The 1.0 mg/kg VTP194310 solution was made by diluting the VTP194310 DMSO Stock 1:3 with DMSO (e.g. 1 ml DMSO+0.5 ml 4310 Stock), and then combining 39.2 ml Corn Oil+0.8 ml of the diluted VTP194310 Stock.
# The 1 and 10 μg/kg PEG-G-CSF solutions were made by diluting 6 mg/ml stock with PBS.
# Male BDF1 mice (C57Bl×DBA2), 7-8 weeks old, DOB: 1 Jun. 2006) were used in this experiment.
# 35 μl of blood (via the submandibular vein) were collected according to the scheduled time points or until the full recovery of blood cells and platelets. The blood samples were analyzed after 1:5 dilution with PBS saline containing 2% BSA (Fraction V) and 0.2 mM EDTA on the Hematology Analyzer Cell-DYN 3700 (Abbott Diagnostics).
# Each group of mice were treated with vehicle, VTP 194310 at 3 mg/kg, PEG-G-CSF at 1 or 10 μg/kg, and CPM at 150 mg/kg. The mean numbers of total white blood cells (WBC), neutrophils, lymphocytes, red blood cells (RBC) and platelets and standard error (SE) for data obtained for each treated group are shown in FIG. 4. […] Combination treatment with VTP 194310 and PEG-G-CSF further increased recovery.
smiles,measurement,setting,value
"CCc1ccc(C2=CC(C)(C)Sc3ccc(C#Cc4ccc(C(=O)O)cc4)cc32)cc1 [VTP 194310, 4-[[4-(4-ethylphenyl)-2,2-dimethyl-(2H)-thiochromen-6-yl]-ethynyl]-benzoic acid]",protective effect against S. aureus infection compared to controls,"[1]; Logrank p=0.0031 (4.1×10^6 CFU), p<0.0001 (2.5×10^6 CFU)",very significant protective effect
same,mice alive,"[1]; day 10, each of the doses of S. aureus (4.1 and 2.5×10^6 CFU), 1 mg/kg days −1 to 2",83%
same,mice alive,"[1]; day 14, 2.5×10^6 CFU S. aureus",67%
same,mice alive,"[1]; day 14, higher dose of bacteria (4.1×10^6 CFU)",42%
same,Ki,RARα,3 nM
same,Ki,RARβ,2 nM
same,effectiveness in enhancing neutrophil recovery compared to PEG-G-CSF at 10 μg/kg,[2]; CPM-induced mouse model,similarly effective
same,neutrophil recovery relative to control,"[2]; monotherapy, CPM 150 mg/kg Day 0, VTP 194310 1 or 3 mg/kg/day oral Days −1 to 1, PEG-G-CSF 1 or 10 μg/kg s.c. Day 2",enhanced neutrophil recovery
